Experimental data published in patent US20200016159A1, “N3-CYCLICALLY SUBSTITUTED THIENOURACILS AND USE THEREOF” (Bayer Aktiengesellschaft, priority 2016, published 2020).

Columns and labels:
[1] = molecular target: T1, human adenosine A2b receptor (Homo sapiens, UniProt P29275); experiment: Cellular in vitro reporter gene test for A2b receptor activity (antagonism of NECA); type: cell-based; parameters: expressed in transfected cells; host or cells: CHO-K1 (Chinese hamster ovary) with CRE-luciferase reporter; conditions: recombinant CHO-K1 cells, CRE-luciferase reporter, co-incubation with EC50 concentration of NECA, 3 hours
T1 sequence (P29275 1-332): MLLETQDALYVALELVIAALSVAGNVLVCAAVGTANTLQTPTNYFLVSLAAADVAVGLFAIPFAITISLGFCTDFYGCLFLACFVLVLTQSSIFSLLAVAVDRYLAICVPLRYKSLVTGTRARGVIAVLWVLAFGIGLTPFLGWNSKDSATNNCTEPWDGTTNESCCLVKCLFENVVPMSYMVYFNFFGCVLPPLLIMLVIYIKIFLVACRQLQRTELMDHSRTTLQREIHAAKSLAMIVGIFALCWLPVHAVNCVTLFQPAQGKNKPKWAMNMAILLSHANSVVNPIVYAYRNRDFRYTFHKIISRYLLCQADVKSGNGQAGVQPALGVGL
How it was run: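 CHO-K1 cells expressing recombinant human A2b receptor plus a CRE-driven firefly luciferase reporter. Compounds co-incubated with NECA at its same-day EC50 concentration; luminescence read 3 hours after NECA addition. IC50 values, sometimes means of several determinations rounded to two significant figures.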

[2] = molecular target: T2, human adenosine A3 receptor (Homo sapiens, UniProt P0DMS8); experiment: Adenosine receptor radioligand binding assay, A3 receptor ([125I]-AB-MECA, HEK293 membranes); conditions: membrane preparations of HEK293 cells, radioligand [125I]-AB-MECA
T2 construct: expressed in transfected cells; host or cells: HEK293
T2 sequence (P0DMS8 1-318): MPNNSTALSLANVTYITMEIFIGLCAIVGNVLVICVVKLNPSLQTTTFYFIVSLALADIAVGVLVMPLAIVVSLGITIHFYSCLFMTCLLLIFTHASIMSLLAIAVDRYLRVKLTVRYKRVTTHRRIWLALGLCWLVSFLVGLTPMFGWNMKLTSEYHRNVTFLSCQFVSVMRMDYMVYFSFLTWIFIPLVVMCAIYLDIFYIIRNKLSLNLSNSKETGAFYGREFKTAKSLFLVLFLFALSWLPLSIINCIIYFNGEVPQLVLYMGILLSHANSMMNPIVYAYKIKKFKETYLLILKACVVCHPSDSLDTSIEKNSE
Description: (§1) The binding properties of the test compounds on adenosine receptors were determined in binding studies with radioligands. For this purpose, membrane preparations of the human adenosine receptor subtypes were produced from cell lines having recombinant receptor expression (CHO cells for the A1 receptor, HEK293 cells for the A2a, A2b and A3 receptors). The following radioligands were used in the experiments: [^3H]-DPCPX for the A1 receptor, [^3H]-CGS 21680 for the A2a receptor, [^3H]-CPX for the A2b receptor and [^125I]-AB-MECA for the A3 receptor. The test substances were each tested in 8 different concentrations and 2 repeat tests per concentration. The displacement of the particular radioligand by the test compound was expressed as percentage inhibition of the specific binding of the controls.
(§2) The IC50 values (concentration which brings about half-maximum inhibition of the specific binding of the controls) and the Hill coefficients (nH) were determined by a non-linear regression analysis, using the competition curves obtained from the mean values of the repeat tests and conducting a curve fit according to the Hill equation:
(§3) (Y=specific binding; A=left-hand asymptote of the curve; D=right-hand asymptote of the curve; C=substance concentration; C50=IC50; nH=rise factor).
(§4) The inhibition constant (Ki) was calculated by the Cheng-Prusoff equation:
(§5) (L=concentration of the radioligand in the assay; KD=receptor affinity of the radioligand for the receptor, determined with a Scatchard plot).
(§6) [Literature: A1 receptor: Townsend-Nicholson, A. und Schofield, P. R., J. Biol. Chem. 269: 2373-2376 (1994); A2a receptor: Luthin, D. R. et al., Mol. Pharmacol. 47: 307-313 (1995); A2b receptor: Stehle, J. H. et al., Mol. Endocrinol. 6: 384-393 (1992) and Linden et al., Mol. Pharmacol. 56: 705-713 (1999); A3 receptor: Salvatore, C. A. et al., Proc. Natl. Acad. Sci. U.S.A. 90: 10365-10369 (1993) and Jacobson, K. A. et al., Neuropharmacology 36: 1157-1165 (1997)].
(§7) Table 2 below lists the K1 values thus determined from these binding assays for representative working examples (in some cases as means of a plurality of independent individual determinations and rounded to two significant figures; it may also be the case here that various independent preparations of the respective working example have been used): […]

[3] = tested on: IL-6 release by LL29 fibroblasts; experiment: NECA-induced IL-6 release by LL29 fibroblasts; type: cell-based; conditions: Homo sapiens, Fibroblast; LL29 cells stimulated with NECA (10 μM), 24 hours, IL-6 ELISA of supernatant
Description: Stimulation of fibroblasts with adenosine or the adenosine analog 5′-N-ethylcarboxamidoadenosine (NECA) leads to release of the pro-inflammatory and pro-fibrotic cytokine IL-6 which can be prevented by inhibition of the A2b receptor.
Accordingly, confluent cells of the human fibroblast cell line LL29 were treated with the test substances and stimulated with NECA (10 μM). After an incubation time of 24 hours, the cell supernatant is removed and human IL-6 in the cell supernatant is determined by ELISA (Quantikine® IL6 ELISA, R&D Systems, Minneapolis, USA).
as §7, with “3” for “2”, “IC50” for “K1”, “obtained in this way for inhibition of IL-6 release” for “thus determined from these binding assays”

[4] = molecular target: T1, human adenosine A2b receptor; experiment: Adenosine receptor radioligand binding assay, A2b receptor ([3H]-CPX, HEK293 membranes); parameters: expressed in transfected cells; conditions: membrane preparations of HEK293 cells, radioligand [3H]-CPX
Description: as §1, §2, §3, §4, §5, §6, §7

[5] = molecular target: T3, human adenosine A2a receptor (Homo sapiens, UniProt P29274); experiment: Adenosine receptor radioligand binding assay, A2a receptor ([3H]-CGS 21680, HEK293 membranes); conditions: membrane preparations of HEK293 cells, radioligand [3H]-CGS 21680
T3 construct: expressed in transfected cells; host or cells: HEK293
Description: as §1, §2, §3, §4, §5, §6, §7

[6] = molecular target: T4, human adenosine A1 receptor (Homo sapiens, UniProt P30542); experiment: Adenosine receptor radioligand binding assay, A1 receptor ([3H]-DPCPX, CHO membranes); conditions: membrane preparations of CHO cells, radioligand [3H]-DPCPX
T4 construct: expressed in transfected cells; host or cells: CHO
T4 sequence (P30542 1-326): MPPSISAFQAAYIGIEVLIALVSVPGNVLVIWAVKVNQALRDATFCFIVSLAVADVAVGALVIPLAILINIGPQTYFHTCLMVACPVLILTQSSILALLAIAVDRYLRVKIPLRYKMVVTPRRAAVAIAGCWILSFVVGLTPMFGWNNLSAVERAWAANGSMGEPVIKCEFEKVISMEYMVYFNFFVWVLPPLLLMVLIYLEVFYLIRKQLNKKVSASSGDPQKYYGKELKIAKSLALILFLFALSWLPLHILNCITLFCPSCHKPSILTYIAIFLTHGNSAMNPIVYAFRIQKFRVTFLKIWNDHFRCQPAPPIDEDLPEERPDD
Description: as §1, §2, §3, §4, §5, §6, §7

[7] = tested on: bladder tumours and breast tumours; conditions: animal models of bladder tumours and breast tumours; cited from earlier work
[8] = tested on: colon cancer cell lines; conditions: inhibition of the A2b receptor-mediated adenosine signalling pathway; cited from earlier work

T3 sequence (P29274 whole entry): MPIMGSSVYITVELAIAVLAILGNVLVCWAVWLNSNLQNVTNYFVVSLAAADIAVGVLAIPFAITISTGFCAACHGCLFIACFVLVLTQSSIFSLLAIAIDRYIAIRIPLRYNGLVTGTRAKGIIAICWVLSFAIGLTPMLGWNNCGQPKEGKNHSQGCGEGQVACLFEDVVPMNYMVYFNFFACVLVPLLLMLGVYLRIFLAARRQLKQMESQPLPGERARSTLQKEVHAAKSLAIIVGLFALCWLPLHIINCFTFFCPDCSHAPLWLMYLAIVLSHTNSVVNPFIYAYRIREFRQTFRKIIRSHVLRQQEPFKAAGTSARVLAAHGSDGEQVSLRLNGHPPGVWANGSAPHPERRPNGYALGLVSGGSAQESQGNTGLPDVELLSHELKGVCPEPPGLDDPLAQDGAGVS

SMILES	IC50 [1] [nM]	Ki [2] [nM]	IC50 [3] [nM]	Ki [4] [nM]	Ki [5] [nM]	Ki [6] [nM]	further results
Cc1c(Cn2nc[nH]c2=O)sc2c1c(=O)n(C1CC1)c(=O)n2CCOC(F)(F)F [Example 36, 3-Cyclopropyl-5-methyl-6-[(5-oxo-4,5-dihydro-1H-1,2,4-triazol-1-yl)methyl]-1-[2-(trifluoromethoxy)ethyl]thieno[2,3-d]pyrimidine-2,4(1H,3H)-dione]	4.4	> 50000	6.1	2.6	950	2600	melting point: 199 °C
Cc1c(Cn2nc[nH]c2=O)sc2c1c(=O)n(C1CC1)c(=O)n2CCC(F)(F)F [Example 15, 3-Cyclopropyl-5-methyl-6-[(5-oxo-4,5-dihydro-1H-1,2,4-triazol-1-yl)methyl]-1-(3,3,3-trifluoropropyl)thieno[2,3-d]pyrimidine-2,4(1H,3H)-dione]	14	> 10000		3.6	3000	8000	
COCCn1c(=O)n(C2CC2)c(=O)c2c(C)c(CN3CCNC3=NC(=O)OC)sc21 [Example 26, Methyl [1-{[3-cyclopropyl-1-(2-methoxyethyl)-5-methyl-2,4-dioxo-1,2,3,4-tetrahydrothieno[2,3-d]pyrimidin-6-yl]methyl}imidazolidin-2-ylidene]carbamate]	8.3		12				
Cc1c(Cn2nc[nH]c2=O)sc2c1c(=O)n(C1(C)CC1)c(=O)n2CCOC(F)(F)F [Example 76, 5-Methyl-3-(1-methylcyclopropyl)-6-[(5-oxo-4,5-dihydro-1H-1,2,4-triazol-1-yl)methyl]-1-[2-(trifluormethoxy)ethyl]thieno[2,3-d]pyrimidine-2,4(1H,3H)-dione]	8.5		11				
CCCn1c(=O)n(C2CC2)c(=O)c2[nH]c(-c3ccc(N(CC)C(=O)c4cccnc4)nc3)nc21 [ATL801]							interferon γ level [7]: significant increase; metastasis [7]: distinct reduction in metastasis; number of tumour antigen-presenting dendritic cells [7]: increase; tumour growth [7]: slowing of tumour growth
COCCn1c(=O)n(C2(C)CC2)c(=O)c2c(C)c(CN3CCNC3=O)sc21 [Example 70, 1-(2-Methoxyethyl)-5-methyl-3-(1-methylcyclopropyl)-6-[(2-oxoimidazolidin-1-yl)methyl]thieno[2,3-d]pyrimidine-2,4(1H,3H)-dione]	15	> 10000		5.7	4800	> 10000	
Cc1c(CN2CCNC2=O)sc2c1c(=O)n(C1CC1)c(=O)n2CCCF [Example 5, 3-Cyclopropyl-1-(3-fluoropropyl)-5-methyl-6-[(2-oxoimidazolidin-1-yl)methyl]thieno[2,3-d]pyrimidine-2,4(1H,3H)-dione]	12		21				
CCCn1c(=O)c2[nH]c(-c3ccc(OCC(=O)Nc4ccc(C#N)cc4)cc3)nc2n(CCC)c1=O [MRS1754]							growth of colon cancer cell lines [8]: reduced growth
COCCn1c(=O)n([C@H]2C[C@@H]2C)c(=O)c2c(C)c(CN3CCNC3=O)sc21 [Example 315, 1-(2-Methoxyethyl)-5-methyl-3-[(1S,2S)-2-methylcyclopropyl]-6-[(2-oxoimidazolidin-1-yl)methyl]thieno[2,3-d]pyrimidine-2,4(1H,3H)-dione]	3.8	3700	4.9	3.7	480	3400	
COCCn1c(=O)n(C2CC2C)c(=O)c2c(C)c(CN3CCNC3=O)sc21 (single isomer, unassigned) [Example 96, 1-(2-Methoxyethyl)-5-methyl-3-(2-methylcyclopropyl)-6-[(2-oxoimidazolidin-1-yl)methyl]thieno[2,3-d]pyrimidine-2,4(1H,3H)-dione]	3.8	3700	4.9	3.7	480	3400	
COC(=O)N=C1NCCN1Cc1sc2c(c1C)c(=O)n(C1COC1)c(=O)n2CCC(F)(F)F [Example 132, Methyl [1-{[5-methyl-3-(oxetan-3-yl)-2,4-dioxo-1-(3,3,3-trifluoropropyl)-1,2,3,4-tetrahydrothieno[2,3-d]pyrimidin-6-yl]methyl}imidazolidin-2-ylidene]carbamate]	11						
Cc1c(CN2CCNC2=NC#N)sc2c1c(=O)n(C1(C)CC1)c(=O)n2CCC(F)(F)F [Example 57, [1-{[5-Methyl-3-(1-methylcyclopropyl)-2,4-dioxo-1-(3,3,3-trifluoropropyl)-1,2,3,4-tetrahydrothieno[2,3-d]pyrimidin-6-yl]methyl}imidazolidin-2-ylidene]cyanamide]	4.4						
Cc1c(Cn2nc[nH]c2=O)sc2c1c(=O)n(C1CC1)c(=O)n2CC1CCC1 [Example 18, 1-(Cyclobutylmethyl)-3-cyclopropyl-5-methyl-6-[(5-oxo-4,5-dihydro-1H-1,2,4-triazol-1-yl)methyl]thieno[2,3-d]pyrimidine-2,4(1H,3H)-dione]	25						
Cc1c(CN2CCNC2=O)sc2c1c(=O)n(C1CC1)c(=O)n2CC1CCC1 [Example 17, 1-(Cyclobutylmethyl)-3-cyclopropyl-5-methyl-6-[(2-oxoimidazolidin-1-yl)methyl]thieno[2,3-d]pyrimidine-2,4(1H,3H)-dione]	4.1						
